For the first test, the target named is T1, HDAC6 enzyme (Homo sapiens, UniProt Q9UBN7).
T1 construct: transducing full length HDAC6 gene into Sf-9 insect cells; GST; purchased SignalChem; host or cells: Sf-9 insect cells
T1 sequence (Q9UBN7 1-1215): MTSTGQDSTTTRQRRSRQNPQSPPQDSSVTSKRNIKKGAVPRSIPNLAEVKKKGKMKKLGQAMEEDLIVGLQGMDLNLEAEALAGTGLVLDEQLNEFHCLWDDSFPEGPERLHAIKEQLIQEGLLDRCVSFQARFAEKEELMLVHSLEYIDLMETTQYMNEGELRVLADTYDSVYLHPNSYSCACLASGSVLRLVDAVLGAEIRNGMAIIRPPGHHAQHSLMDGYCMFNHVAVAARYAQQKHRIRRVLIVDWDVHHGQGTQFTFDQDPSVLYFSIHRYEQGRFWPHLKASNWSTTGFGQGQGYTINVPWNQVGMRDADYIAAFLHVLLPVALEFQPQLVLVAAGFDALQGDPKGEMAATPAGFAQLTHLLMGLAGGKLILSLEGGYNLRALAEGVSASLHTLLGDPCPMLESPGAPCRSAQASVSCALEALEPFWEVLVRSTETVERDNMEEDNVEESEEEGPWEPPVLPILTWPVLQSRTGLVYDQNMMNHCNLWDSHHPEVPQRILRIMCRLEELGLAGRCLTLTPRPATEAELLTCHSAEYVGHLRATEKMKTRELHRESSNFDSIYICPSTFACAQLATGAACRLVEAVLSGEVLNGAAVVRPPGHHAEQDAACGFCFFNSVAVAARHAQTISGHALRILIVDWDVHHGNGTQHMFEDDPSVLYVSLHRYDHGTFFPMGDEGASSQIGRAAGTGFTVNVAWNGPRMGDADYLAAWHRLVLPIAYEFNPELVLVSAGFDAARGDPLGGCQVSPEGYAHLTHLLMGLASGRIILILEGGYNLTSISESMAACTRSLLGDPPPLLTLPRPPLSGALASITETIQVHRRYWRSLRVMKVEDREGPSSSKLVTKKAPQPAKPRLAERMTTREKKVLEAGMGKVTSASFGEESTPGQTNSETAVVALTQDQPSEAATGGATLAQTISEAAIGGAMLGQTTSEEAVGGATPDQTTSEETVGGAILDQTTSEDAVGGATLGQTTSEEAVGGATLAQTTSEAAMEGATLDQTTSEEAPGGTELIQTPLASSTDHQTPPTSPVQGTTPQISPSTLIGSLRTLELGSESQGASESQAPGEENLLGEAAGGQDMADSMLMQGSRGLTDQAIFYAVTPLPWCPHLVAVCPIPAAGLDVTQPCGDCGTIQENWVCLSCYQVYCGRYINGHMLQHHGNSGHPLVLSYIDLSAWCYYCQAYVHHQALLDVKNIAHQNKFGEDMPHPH
In words: HDAC6 enzyme inhibitory activity (HDAC-Glo I/II Assay kit). It counts as biochemical. Conditions: 10 μM; wells without enzyme = 100% inhibition; read-out: HDAC6 inhibitory rate (%) (10 μM). The method, boiled down: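 Luminescence read-out after 20 min reaction with HDAC-Glo substrate-developer, following 60 min room-temperature preincubation of compound with Sf-9-expressed, GST-purified full-length enzyme. Inhibition is relative to no-enzyme wells set as 100%.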
Regarding `O=C1c2cc(-c3nnc(C(F)F)o3)cnc2CN1c1ccc(F)cc1-c1cccc(Cl)c1` [Example 410, 6-(3′-chloro-5-fluoro-biphenyl-2-yl)-3-(5-(difluoro-methyl)-1,3,4-oxadiazol-2-yl)-6,7-dihydro-5H-pyrrolo [3,4-b]pyridin-5-one], the inhibition at 10 µM is 101%. Still for that read-out and setting: as for `Cn1cc(-c2cc(F)ccc2N2Cc3ncc(-c4nnc(C(F)F)o4)cc3C2=O)cn1` [Example 411, 3-(5-(difluoro-methyl)-1,3,4-oxadiazol-2-yl)-6-(4-fluoro-2-(1-methyl-1H-pyrazol-4-yl)phenyl)-6,7-dihydro-5H-pyrrolo[3,4-b] pyridin-5-one], the figure is 100%; as for `Cn1nc(C(F)(F)F)cc1-c1cc(F)ccc1N1Cc2ncc(-c3nnc(C(F)F)o3)cc2C1=O` [Example 412, 3-(5-(difluoro-methyl)-1,3,4-oxadiazol-2-yl)-6-(4-fluoro-2-(1-methyl-3-(trifluoro-methyl)-1H-pyrazol-5-yl)phenyl)-6,7-dihydro-5H-pyrrolo[3,4-b] pyridin-5-one], 100%; as for `CC(C)(C)OC(=O)N[C@H]1COCC[C@H]1N1Cc2ccc(-c3nnc(C(F)F)o3)cc2C1=O` [Example 413, tert-butyl ((3R,4R)-4-(6-(5-(difluoro-methyl)-1,3,4-oxadiazol-2-yl)-1-oxo-1,3-dihydro-2H-isoindol-2-yl)tetrahydro-2H-pyran-3-yl) carbamate], 98%. The same measure, in the same setting: as for `N[C@H]1COCC[C@H]1N1Cc2ccc(-c3nnc(C(F)F)o3)cc2C1=O` [Example 414, 2-((3R,4R)-3-aminotetra-hydro-2H-pyran-4-yl)-6-(5-(difluoro-methyl)-1,3,4-oxadiazol-2-yl) isoindolin-1-one], the figure is 87%; as for `O=C1c2cc(-c3nnc(C(F)F)o3)ccc2CN1[C@@H]1CCOC[C@@H]1NCC(F)(F)F` [Example 415, 6-(5-(difluoro-methyl)-1,3,4-oxadiazol-2-yl)-2-((3R,4R)-3-((2,2,2-trifluoro-ethyl)amino)tetrahydro-2H-pyran-4-yl) isoindolin-1-one], 101%. Same read-out and setting: with `O=C1c2cc(-c3nnc(C(F)F)o3)ccc2CN1[C@@H]1CCOC[C@@H]1NCC(F)(F)C(F)(F)F` [Example 416, 6-(5-(difluoro-methyl)-1,3,4-oxadiazol-2-yl)-2-((3R,4R)-3-((2,2,3,3,3-pentafluoro-propyl)amino)tetrahydro-2H-pyran-4-yl) isoindolin-1-one] the figure was 101%; with `O=C1c2cc(-c3nnc(C(F)F)o3)ccc2CN1[C@@H]1CCOC[C@@H]1NC(=O)C(F)(F)C(F)(F)F` [Example 418, N-((3R,4R)-4-(6-(5-(difluoro-methyl)-1,3,4-oxadiazol-2-yl)-1-oxo-1,3-dihydro-2H-isoindol-2-yl)tetrahydro-2H-pyran-3-yl)-2,2,3,3,3-pentafluoro-propanamide], 99%; with `Cn1ccc(CN2Cc3ncc(-c4nnc(C(F)F)o4)cc3C2=O)n1` [Example 419, 3-(5-(difluoro-methyl)-1,3,4-oxadiazol-2-yl)-6-((1-methyl-1H-pyrazol-3-yl)methyl)-6,7-dihydro-5H-pyrrolo[3,4-b] pyridin-5-one], 99%.

For the compound `O=C1c2cc(-c3nnc(C(F)F)o3)cc(F)c2CN1C[C@H]1CC(F)(F)CN1S(=O)(=O)c1cccc(F)c1` [Example 420, 2-(((2R)-4,4-difluoro-1-((3-fluoro-phenyl)sulfonyl)pyrrolidin-2-yl)methyl)-6-(5-(difluoro-methyl)-1,3,4-oxadiazol-2-yl)-4-fluoroiso-indolin-1-one], the inhibition at 10 µM was determined as 99%. With `O=C1c2cc(-c3nnc(C(F)F)o3)cc(F)c2CN1C[C@H]1CC(F)(F)CN1S(=O)(=O)CC(F)(F)F` [Example 421, 6-(5-(difluoro-methyl)-1,3,4-oxadiazol-2-yl)-2-(((2R)-4,4-difluoro-1-((2,2,2-trifluoro-ethyl)sulfonyl)pyrrolidin-2-yl)methyl)-4-fluoroiso-indolin-1-one], the inhibition at 10 µM came out at 98%. On the same count and under the same terms, with `O=C1c2cc(-c3nnc(C(F)F)o3)cc(F)c2CN1C[C@H]1CC(F)(F)CN1C(=O)C1CC1` [Example 422, 2-(((2R)-1-(cyclopropyl-carbonyl)-4,4-difluoro-pyrrolidin-2-yl)methyl)-6-(5-(difluoro-methyl)-1,3,4-oxadiazol-2-yl)-4-fluoroiso-indolin-1-one] the figure was 98%; with `Cn1cc(CN2Cc3ncc(-c4nnc(C(F)F)o4)cc3C2=O)cn1` [Example 423, 3-(5-(difluoro-methyl)-1,3,4-oxadiazol-2-yl)-6-((1-methyl-1H-pyrazol-4-yl)methyl)-6,7-dihydro-5H-pyrrolo[3,4-b] pyridin-5-one], 99%; with `O=C1c2cc(-c3nnc(C(F)F)o3)cnc2CN1c1ccccc1-c1cnn(C(F)F)c1` [Example 424, 3-(5-(difluoro-methyl)-1,3,4-oxadiazol-2-yl)-6-(2-(1-(difluoro-methyl)-1H-pyrazol-4-yl)phenyl)-6,7-dihydro-5H-pyrrolo[3,4-b] pyridin-5-one], 101%. For `O=C1c2cc(-c3nnc(C(F)F)o3)cnc2CN1Cc1cncc(C(F)(F)F)c1` [Example 425, 3-(5-(difluoro-methyl)-1,3,4-oxadiazol-2-yl)-6-((5-(trifluoro-methyl)pyridin-3-yl)methyl)-6,7-dihydro-5H-pyrrolo [3,4-b] pyridin-5-one], the inhibition at 10 µM was determined as 99%. The same measure, in the same setting: with `Cn1nc(C(F)(F)F)cc1-c1c(Cl)cccc1N1Cc2ccc(-c3nnc(C(F)F)o3)cc2C1=O` [Example 426, 2-(3-chloro-2-(1-methyl-3-(trifluoro-methyl)-1H-pyrazol-5-yl)phenyl)-6-(5-(difluoro-methyl)-1,3,4-oxadiazol-2-yl) isoindolin-1-one] the figure was 99%; with `O=C1c2cc(-c3nnc(C(F)F)o3)cc(F)c2CN1C[C@H]1CCCN1S(=O)(=O)c1cccc(F)c1` [Example 427, 6-(5-(difluoro-methyl)-1,3,4-oxadiazol-2-yl)-4-fluoro-2-(((2R)-1-((3-fluorophenyl)sulfonyl)pyrrolidin-2-yl)methyl) isoindolin-1-one], 100%; with `O=C1c2cc(-c3nnc(C(F)F)o3)cnc2CN1Cc1cccc(Br)c1` [Example 428, 6-(3-bromo-benzyl)-3-(5-(difluoro-methyl)-1,3,4-oxadiazol-2-yl)-6,7-dihydro-5H-pyrrolo [3,4-b] pyridin-5-one], 99%.

As for `O=C1c2cc(-c3nnc(C(F)F)o3)cc(F)c2CN1C[C@H]1CC(F)(F)CN1C(=O)c1ccccc1` [Example 429, 2-(((2R)-1-benzoyl-4,4-difluoro-pyrrolidin-2-yl)methyl)-6-(5-(difluoro-methyl)-1,3,4-oxadiazol-2-yl)-4-fluoroiso-indolin-1-one], the inhibition at 10 µM amounted to 97%.

Staying with this test, now noted: read-out: HDAC6 inhibitory rate (%) (10 μM).
With `O=C1c2cc(-c3nnc(C(F)F)o3)ccc2CN1[C@@H]1CCOC[C@@H]1NCC(F)(F)C(F)(F)C(F)(F)F` [Example 417, 6-(5-(difluoro-methyl)-1,3,4-oxadiazol-2-yl)-2-((3R,4R)-3-((2,2,3,3,4,4,4-heptafluoro-butyl)amino)tetrahydro-2H-pyran-4-yl) isoindolin-1-one], the inhibition at 10 µM turned out to be 101%.

For the origin of these results see patent US10435399B2, “HDAC6 inhibitory heterocyclic compound” (TAKEDA PHARMACEUTICAL COMPANY LIMITED, priority 2017, dated 2019).
